The test system of experiment [1] is Preadipocyte cell line 3T3-L1. The experiment in a line: Induction of differentiation into adipocytes (amount of triglyceride biosynthesis). Type of experiment: cell-based. The following applies: for induction of biosynthesis of triglyceride (inducing action on differentiation into mature adipocytes): isolated compounds at final 1-30 μM, seven days after addition. As for the experimental part: The induction of differentiation into adipocytes was carried out by partially modifying the method of Rubin C. S. et al. (J. Biol. Chem., Vol. 253, No. 20, p7570-7578 (1978)). Preadipocyte cell line 3T3-L1 (ATCC CCL-92.1) was suspended in a 10% fetal bovine serum (manufactured by GIBCO)-containing Dulbecco's modified Eagle's medium (manufactured by Sigma, D6046) containing 200 μM ascorbic acid (hereinafter referred to as A-D-MEM medium) so as to have a density of 4×10^3 cells/mL, and the suspension was put in each well of a 12-well microtiter plate in an amount of 2 mL per well. The cells were cultured at 37° C. for 7 days in the presence of 5% carbon dioxide gas. The medium was exchanged with the same medium on the second day and the fourth day. On the seventh day, the medium was exchanged with A-D-MEM medium containing 0.25 μM dexamethasone. […] Here, there were set a group with addition of 4 μL of a 5 mg/mL aqueous solution of insulin (manufactured by TAKARA BIO INC.) as a positive control, and a group with addition of dimethyl sulfoxide as a negative control. After 45 hours, the medium was exchanged with A-D-MEM medium. […] The cells were cultured for additional 7 days.
The amount of triglyceride in the adipocytes was determined as an index for inducing differentiation into matured adipocytes, and as evaluation of insulin-mimetic action. After the termination of the culture, the medium was removed, and the cells were washed twice with a phosphate buffered saline. One milliliter of a solvent of hexane: isopropanol=3:2 was added thereto. The mixture was allowed to stand at room temperature for 30 minutes, and thereafter the supernatant was collected. The procedures were repeated again, and 2 mL of the resulting supernatant was concentrated to dryness. The precipitate was dissolved in 100 μL of isopropanol, and thereafter the amount of triglyceride contained in 10 μL of the resulting solution was determined with Triglyceride E-Test (manufactured by Wako Pure Chemical Industries, Ltd., code 432-40201). All of the determinations were carried out twice.
Specifically, as a sample, there was set a group with addition of the dimethyl sulfoxide solution of the extract from the root portion of Angelica keiskei koidz. with the 40% aqueous ethanol solution at a final concentration of 0.1% or 0.033%, the dimethyl sulfoxide solution of the extract from the root portion of Angelica keiskei koidz. with the 50% aqueous ethanol solution at a final concentration of 0.033% or 0.011%, the dimethyl sulfoxide solution of the extract from the root portion of Angelica keiskei koidz. with the 70% aqueous ethanol solution at a final concentration of 0.022%, the dimethyl sulfoxide solution of the extract from the root portion of Angelica keiskei koidz. with the 60% or 80% aqueous ethanol solution or the dimethyl sulfoxide solution of the extract with the 100% ethanol so as to have a final concentration of 0.067% or 0.022%, respectively, to each well. Here, there were set a group with addition of 4 μL of a 5 mg/mL aqueous solution of insulin (manufactured by TAKARA BIO INC.) as a positive control, and a group with addition of dimethyl sulfoxide as a negative control. Thereafter, the medium and the sample were exchanged in the same manner as in the method described in Example 5, and after seven days from the addition of the sample, the amount of triglyceride in the adipocytes was determined.
Here, there were set a group with addition of 4 μL of a 5 mg/mL aqueous solution of insulin (manufactured by TAKARA BIO INC.) as a positive control, and a group with addition of dimethyl sulfoxide as a negative control. Thereafter, the medium and the sample were exchanged in the same manner as in the method described in Example 5, and after seven days from the addition of the sample, the amount of triglyceride in the adipocytes was determined.

For a further experiment, the target named is aldose reductase (Homo sapiens, UniProt P15121). The following applies: clarified in WO 2004/031165; cited from earlier work.
For experiment [2], the system named is mature adipocytes (3T3-L1 cells). The experiment in a line: Enhancing action on glucose uptake (2-deoxyglucose uptake) into mature adipocytes. The following applies: insulin 1 μg/mL positive control, compared to negative control. Type of experiment: cell-based. Here is the method: The induction of differentiation into mature adipocytes was carried out by partially modifying the method of Rubin C. S. et al. 3T3-L1 cells were suspended in a 10% fetal bovine serum-containing Dulbecco's modified Eagle's medium containing 200 μM ascorbic acid so as to have a density of 4×10^3 cells/mL, and the suspension was put in each well of a 12-well microtiter plate in an amount of 2 mL per well. The cells were cultured at 37° C. for 7 days in the presence of 5% carbon dioxide gas. On the seventh day, the medium was exchanged with 2 mL of a 10% fetal bovine serum-containing Dulbecco's modified Eagle's medium containing 200 μM ascorbic acid, 0.25 μM dexamethasone, 10 μg/mL insulin and 0.5 mM 3-isobutyl-1-methylxanthine (manufactured by Nacalai Tesque, Inc., 19624-44). After 45 hours, the medium was exchanged with 2 mL of a 10% fetal bovine serum-containing Dulbecco's modified Eagle's medium containing 200 μM ascorbic acid and 5 μg/mL insulin. The medium was exchanged on after 2 days and 4 days, and the cells were cultured for 7 days, to give mature adipocytes.
As the evaluation of enhancing action on glucose uptake, and also as the evaluation of insulin-mimetic action, the amount of 2-deoxyglucose uptake into mature adipocytes stimulated with the sample ([…]) in the adipocytes was determined.
After the termination of the culture, the medium was removed, and the cells were washed twice with a 0.1% (w/v) bovine serum albumin (manufactured by Sigma, A8022)-containing Dulbecco's modified Eagle's medium. Thereafter, 1 mL of the […] ethanol solution at a final concentration of 0.1%, 0.067%, or 0.022%, […] solution at a final concentration of 0.2%, 0.067%, or 0.022%, […] ethanol solution or the dimethyl sulfoxide solution of the extract from the root portion of Angelica keiskei koidz. with the 100% ethanol so as to have a final concentration of 0.067% or 0.022%, each extract being prepared in Example 4, was put to each well. The cells were cultured overnight at 37° C. in the presence of 5% carbon dioxide gas. Here, a group without addition of the sample was set as a negative control. After the overnight culture, the cells were washed twice with a HEPES buffered saline (140 mM NaCl, 5 mM KCl, 2.5 mM MgSO4, 1 mM CaCl2, 20 mM HEPES-Na (pH 7.4)), and 0.9 mL of the […] ethanol solution at a final concentration of 0.1%, 0.067%, or 0.022%, […] solution at a final concentration of 0.2%, 0.067%, or 0.022%, […] ethanol solution or the dimethyl sulfoxide solution of the extract from the root portion of Angelica keiskei koidz. with the 100% ethanol so as to have a final concentration of 0.067% or 0.022%, was added thereto. The cells were cultured at 37° C. for 75 minutes. At the point when 45 minutes passed, there was set in a well without addition of the sample a group with addition of insulin so as to have a final concentration of 1 μg/mL as a positive control. Thereafter, 100 μL of a HEPES buffered saline containing 0.5 μCi/mL 2-deoxy-[1,2-^3H(N)]-glucose (manufactured by PerkinElmer Life Sciences Inc., NET549A) and 1 mM 2-deoxyglucose (manufactured by Nacalai Tesque, Inc., 10722-11) was added thereto, and the cells were further cultured at 37° C. for 10 minutes. […] The radioactivity was determined with a liquid scintillation counter LS6500 (manufactured by Beckmann) using 25 μl of the supernatant with Ultima Gold (manufactured by PerkinElmer Life Sciences Inc., 6013329) as a scintillation cocktail. […]

Experiment [3] deals with T1, human muscle cell-derived aldose reductase (Homo sapiens, UniProt P15121).
T1 construct: purchased Wako Pure Chemical Industries, Ltd
The experiment in a line: Inhibitory action for aldose reductase (change in NADPH absorbance at 340 nm, methylglyoxal substrate). It counts as biochemical. As for the experimental part:
Inhibitory action for aldose reductase of the extract from the root portion of Angelica keiskei koidz. was determined in accordance with the following method. As a sample, 20 μL of a 100 mM methylglyoxal solution was added to 10 μL of each of the kinds of ethanol extracts from the root portion of Angelica keiskei koidz. prepared in Example 4, and 10 μL of the water extract from the root portion of Angelica keiskei koidz. prepared in Preparation Example 1 (a solution prepared by dissolving the extract in a 50% aqueous dimethyl sulfoxide solution), 100 μL of 0.2 M phosphate buffer (pH 6.2), 20 μL of 1 mM NADPH (phosphate buffer), and 10 μL of a human muscle cell-derived aldose reductase solution (0.1 U/mL, manufactured by Wako Pure Chemical Industries, Ltd., phosphate buffer). For a period of 180 seconds after 30 seconds passed, the change in absorbance of NADPH at 340 nm was determined. As a negative control, a 50% aqueous dimethyl sulfoxide solution was used in place of the sample. Also, the absorbance was determined using distilled water as a blank solution for each sample in place of the methylglyoxal solution. The determination values were expressed as an average of two experimental values. The inhibitory ratio (%) for aldose reductase was calculated in accordance with the following formula: Inhibitory Ratio (%)=[1−(ΔAs−ΔAsb)/(ΔAc−ΔAcb)]×100, wherein ΔAs and ΔAc show a change in the absorbance of each of the sample solution and the negative control solution per minute; and ΔAsb and ΔAcb show a change in the absorbance of the blank solutions for the sample solution and the negative control solution per minute.
The inhibitory activity for aldose reductase of the extract from the leaf and stem portions of Angelica keiskei koidz. prepared in Example 3 was determined in the same manner as in Example 8.

The mark [4] stands for this setting: isolated compounds at final 3-30 μM.

Regarding `CC(C)=CCCC1(C)Oc2c(C(=O)/C=C/c3ccc(O)cc3)ccc(O)c2CC1O` (centres unmarked) [TB2], the “induction of biosynthesis of triglyceride (inducing action on differentiation into mature adipocytes)” value in experiment [1] is “induction of biosynthesis of triglyceride was found”. Also, the “inhibitory actions for aldose reductase” value at aldose reductase is recorded as “inhibitory actions for aldose reductase are found”.

For the compound `COc1ccc(C(=O)/C=C/c2ccc(O)cc2)c(O)c1CC=C(C)C` [4-hydroxyderricin], the “enhancement of 2-deoxy-[1,2-3H(N)]-glucose uptake” value in experiment [2] (setting [4]) was “enhancement of 2-deoxy-[1,2-^3H(N)]-glucose uptake was found”. In addition, the “induction of biosynthesis of triglyceride (inducing action on differentiation into mature adipocytes)” value in experiment [1] is “induction of biosynthesis of triglyceride was found”.

With `CC12CCC(O)C(C)(C)C1Cc1c(O)ccc(C(=O)/C=C/c3ccc(O)cc3)c1O2` (centres unmarked) [TB1], the “induction of biosynthesis of triglyceride (inducing action on differentiation into mature adipocytes)” value in experiment [1] is “induction of biosynthesis of triglyceride was found”. Further, on aldose reductase, the “inhibitory actions for aldose reductase” value is recorded as “inhibitory actions for aldose reductase are found”.

Turning to `COc1ccc2c(c1CC=C(C)C)O[C@H](c1ccc(O)cc1)CC2=O` [Munduleaflavanone A, munduleaflavanone A], the “Inhibitory Ratio (%) of Aldose Reductase” value was determined as 38.5% in experiment [3] (2.5 μM), 54.6% in experiment [3] (5 μM), 68.5% in experiment [3] (10 μM) and 73.8% in experiment [3] (20 μM). Further, in experiment [1], the “induction of biosynthesis of triglyceride (inducing action on differentiation into mature adipocytes)” value is listed as “induction of biosynthesis of triglyceride was found”.

Consider `CC(C)=CCC/C(C)=C/Cc1c(O)ccc2c1O[C@H](c1ccc(O)cc1)CC2=O` [Prostratol F, prostratol F], for which the “Inhibitory Ratio (%) of Aldose Reductase” value in experiment [3] (2.5 μM) is given as 27.4%; in experiment [3] (5 μM) it was 46.3%; in experiment [3] (10 μM) it was 57.1%; in experiment [3] (20 μM) it was 61.4%. The “induction of biosynthesis of triglyceride (inducing action on differentiation into mature adipocytes)” value in experiment [1] is recorded as “induction of biosynthesis of triglyceride was found”.

With “insulin: insulin (manufactured by TAKARA BIO INC.), positive control [reference compound]”, the “enhancement of 2-deoxy-[1,2-3H(N)]-glucose uptake” value in experiment [2] (setting [4]) and in experiment [2] (root extracts (Example 4) at final 0.022-0.2%) was “enhancement of 2-deoxy-[1,2-^3H(N)]-glucose uptake was found” in each case. Moreover, the “induction of triglyceride biosynthesis (activity of inducing differentiation into adipocytes)” value in experiment [1] (leaf and stem extracts (Example 3) at final 0.011-0.2%, insulin positive control, compared to dimethyl sulfoxide group) was “induction of triglyceride biosynthesis could be also confirmed”.

On to bavachromanol, for which the “Inhibitory Ratio (%) of Aldose Reductase” value in experiment [3] (2.5 μM) stood at 42.1%; in experiment [3] (5 μM), 58.2%; in experiment [3] (10 μM), 70.5%; in experiment [3] (20 μM), 80.1%.

These data come from patent US20070092587A1, “Extract from plant of japanese parsley family and process for producing the same” (priority 2004, published 2007).
